Reference: publication PMC5994915 (Bioorganic & medicinal chemistry, 2017)

Assays:
[1] = system: class IIa HDACs in HEL cells; settings: Boc-Lys (triflouroacetyl)-AMC substrate, n ≥ 2
[2] = system: class I HDACs in HEL cells; settings: Boc-Lys (acetyl)-AMC substrate, n ≥ 2

## Nc1ccccc1NC(=O)c1ccc(NC(=O)CN2C(=O)C3(OCCCO3)c3cc(Br)ccc32)cc1 [9a, N-(2-aminophenyl)-4-(2-(5-bromo-2-oxospiro[indoline-3,2′-[1,3]dioxan]-1-yl)acetamido)ben-zamide]
[1]
  HDAC class IIa cellular IC50: not active
[2]
  HDAC class I cellular IC50: not active

## Nc1ccc(-c2cccs2)cc1NC(=O)c1ccc(CNC(=O)CN2C(=O)C3(OCCCO3)c3cc(Cl)ccc32)cc1 [23a, N-(2-Amino-5-(thiophen-2-yl)phenyl)-4-((2-(5-chloro-2-oxospiro[indoline-3,2′-[1,3]dioxan]-1-yl)acetamido)methyl)benza-mide]
[1]
  HDAC class IIa cellular IC50: not active
[2]
  HDAC class I cellular IC50: not active
